Test results from BindingDB's records for doi:10.1016/j.bmcl.2005.10.011 (4Sc, 2006).

Target: T1, Dihydroorotate dehydrogenase (quinone), mitochondrial [30-395] (Homo sapiens, UniProt Q02127)
T1 construct: 30-395
Test: DHODH Inhibition Assay
Details: pH 8; 25 °C
Procedure: The assays were carried out by using a colorimetric DCIP method, which uses the colorimetric reagent 2, 6-dichlorophenolindophenol as the final electron acceptor. DCIP reduction is stoichiometrically equivalent to oxidation of dihydroorotate. Changes in absorbance were quantified in triplicate on a plate reader and data were analyzed to measure the reduction of DCIP as a decrease in absorbance at 610 nm. […] Each data point was recorded in triplicates on a single measurement day.

T1 sequence (Q02127 30-395): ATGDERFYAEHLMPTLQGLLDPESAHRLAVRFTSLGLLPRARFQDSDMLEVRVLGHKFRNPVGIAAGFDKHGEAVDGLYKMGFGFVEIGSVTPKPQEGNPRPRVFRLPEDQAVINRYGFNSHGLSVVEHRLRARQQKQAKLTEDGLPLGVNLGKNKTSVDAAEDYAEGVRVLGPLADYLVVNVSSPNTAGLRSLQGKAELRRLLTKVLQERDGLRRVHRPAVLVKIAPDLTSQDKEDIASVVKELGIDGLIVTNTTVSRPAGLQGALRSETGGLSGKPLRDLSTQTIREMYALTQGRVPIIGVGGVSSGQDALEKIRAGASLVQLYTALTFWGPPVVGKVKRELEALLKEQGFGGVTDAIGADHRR

O=C(O)c1cscc1C(=O)Nc1c(F)cc(-c2cccc(OC(F)(F)F)c2)cc1F [4-({2,6-difluoro-4-[3-(trifluoromethoxy)phenyl]phenyl}carbamoyl)thiophene-3-carboxylic acid]
IC50: 10 nM
